Results on 19 sequences are retold here after patent US20190290729A1, “PHARMACEUTICAL ASSOCIATION OF GROWTH FACTOR RECEPTOR AGONIST AND ADHESION PROTEIN INHIBITOR FOR CONVERTING A NEOPLASTIC CELL INTO A NON-NEOPLASTIC CELL AND USES THEREOF” (HISTIDE AG, priority 2015, published 2019).

Where no end group is shown, it is not given here.

One test deals with MG63 cells. Briefly: pRB phosphorylation level, immunofluorescence staining quantified with ImageJ, osteosarcoma cells. The test is classed as cell-based, human. The settings on record: Table 7; human osteosarcoma cells, MG63; GFR-binding compound within pharmaceutical association. The method, then:
(§1) The following starting materials and reagents were used: • Type-I collagen sponge was obtained from Sigma®. • PBS 1× was obtained from Gibco®. • MilliQ water: is water characterised in terms of resistivity (typically 18.2 MΩ·cm at 25° C.). • Low glucose Dulbecco's Modified Eagle Medium (DMEM) was obtained from Invitrogen® • Minimum Essential Medium Eagle without ascorbic acid (αMEM) was obtained from Invitrogen®. • All of the cell culture experiments were carried out without any serum in the medium for the first 8 hours of culture. • Osteosarcoma cells: MG63 cells were obtained from ATCC®. These cells were cultured in DMEM (Eagle's Minimum Essential Medium) medium supplemented with 10% fetal calf serum (FCS) and 1% penicillin/streptomycin. All cells were used at a low passage number (passage 10), were subconfluently cultured and were seeded at 10^4 cells/cm^2 for the purpose of the experiments. • Chondrosarcoma cells Hs819.T cells were obtained from ATCC®. These cells were cultured in DMEM (Eagle's Minimum Essential Medium) medium supplemented with 10% fetal calf serum (FCS) and 1% penicillin/streptomycin. All cells were used at a low passage number (passage 10), were subconfluently cultured and were seeded at 10^4 cells/cm^2 for the purpose of the experiments. • Rhabdomyosarcoma cells: A-673 cells were obtained from ATCC®. These cells were cultured in DMEM (Eagle's Minimum Essential Medium) medium supplemented with 10% fetal calf serum (FCS) and 1% penicillin/streptomycin. All cells were used at a low passage number (passage 10), were subconfluently cultured and were seeded at 10^4 cells/cm^2 for the purpose of the experiments. • Adenocarcinoma cells: HCC4006 cells were obtained from ATCC®. These cells were cultured in RPMI-1640 medium (obtained from ATCC®) supplemented with 10% fetal calf serum (FCS) and 1% penicillin/streptomycin. All cells were used at a low passage number (passage 10), were subconfluently cultured and were seeded at 10^4 cells/cm^2 for the purpose of the experiments. • CMFDA is a Cell Tracker Green obtained from Invitrogen®. • DAPI was obtained from Sigma®. • Fetal bovine serum (FBS) was obtained from Gibco®. • Penicillin/streptomycin was obtained from Invitrogen®. • The AlamarBlue® assay was obtained from Molecular Probes®. • Anti phospho-p53 antibody was obtained from Santa Cruz Biotechnology®, • Anti pRB antibody was obtained from Santa Cruz Biotechnology®, • Monoclonal anti-integrin (extracellular domain) αv, α5, α3, α4, β1, β3, β5 and β9 antibodies were obtained from Santa Cruz Biotechnology®, • Cell cytoskeletal filamentous actin (F-actin) was visualized by Alexa Fluor® 488 phalloidin Sigma® labeling. • Monoclonal anti-vinculin antibody (clone hVIN-1, produced in mouse) was obtained from Sigma®.
(§2) • All of the peptides were synthetized using conventional solution and/or solid phase peptide synthesis methods. • All of the experiments were performed with a concentration of 400 ng/mL of GFR-binding compound(s) as defined herein. • All cell culture experiments were performed with cultures on plastic coated with type-I collagen in order to mimic the physiological conditions of the human body. • The compositions of pharmaceutical compositions used in the examples below are summarized in the following table:
(§3) The cells were first fixed for 20 min with 4% paraformaldehyde/PBS at 4° C. After fixation, the cells were permeabilized in PBS containing 1% Triton X-100 for 15 min. Protein immunofluorescent visualization was performed by first treating the cells with 1% (v/v) specific monoclonal antibodies for 1 hour at 37° C. Then the samples were incubated with Alexa Fluor® 568 or 647 (F(ab′)2 fragment of IgG(H+L)) during 30 min at room temperature. The cell nuclei were counterstained in 20 ng/mL DAPI for 10 min at room temperature.
(§4) For this type of quantification the freeware image analysis ImageJ® software was used. […]

For test [1], the system named is human rhabdosarcoma cells. Kind of test: pRB quantification, same procedure, rhabdosarcoma cells. The test is classed as cell-based. The settings on record: for pRB: Table 9, in association with SiRNA Integrin alpha 3+RGDSPC+SiRNA Integrin beta 1+SiRNA Syndecan 1 (SEQ ID NO: 31, 32, 164 to 187). The method, then:
as §1, §2, §3, §4

The test system of test [2] is human rhabdosarcoma cells. Briefly: p53 quantification, same procedure, rhabdosarcoma cells. The test is classed as cell-based. On the set-up: P53: unit not given here. As to conditions: for P53: Table 9, in association with SiRNA Integrin alpha 3+RGDSPC+SiRNA Integrin beta 1+SiRNA Syndecan 1 (SEQ ID NO: 31, 32, 164 to 187). The method, then:
as §1, §2, §3, §4

Where [3] appears, read: Table 5, cyclic GFR-binding peptide in association with SiRNA Integrin alpha 3+RGDSPC+SiRNA Integrin beta 1+SiRNA Syndecan 1, 400 ng/mL.
The mark [4] stands for this setting: Table 8, in association with SiRNA Integrin alpha 3, v, 4 and SiRNA Integrin beta 1.

Turning to “NDEGLECVPTEERPVQVRKIRIKPHQGQKKATVFLQHNK [SEQ ID NO: 54] (Non-cyclic GFR-binding peptide)”, the “pRB (%)” value in the test on MG63 cells is given as 12%.
As for “NDEGLECVPTEERPVQVRKIRIKPHQGQKKATVFLQHNK [SEQ ID NO: 59] (Non-cyclic GFR-binding peptide)”, the “pRB (%)” value in the test on MG63 cells was 22%.
As to “GTPGPPKPSSAPTQLNAISMLYFGGGGGLKKYRDMQHN (Non-cyclic GFR-binding peptide) [SEQ ID NO: 169]”, in test [1], the pRB was 8. This sequence returned a P53 in test [2] of 37.
On to “IPKASSAPVGQRPVQMRKIDKGVVTYKKATVSSVEESGSLDKGVVTY (not fully specified; also: cyclic, mode of cyclisation not given here) [SEQ ID NO: 38218]”, for which, in test [1] (setting [3]), the “pRB (%)” value worked out at 12%. Also, the “P53 (%)” value in test [2] (setting [3]) amounted to 36%.
“CASAAPSSVPQALEPLPIVYYVGRTPKVEQLSNMIVRSSK (Non-cyclic GFR-binding peptide) [SEQ ID NO: 175]” came in with a pRB in test [1] of 7. Besides, the P53 in test [2] is 45.
Regarding “CGIPEPSSVPEKTSSLSLLFFDENKNVVLKVYPNM (Non-cyclic GFR-binding peptide) [SEQ ID NO: 180]”, the pRB in test [1] turned out to be 9. Besides, the P53 in test [2] was determined as 29.
For “CAAPASSSVPARLSPISILYIDAANNVVYKQYEDMVVEASG (Non-cyclic GFR-binding peptide) [SEQ ID NO: 181]”, the pRB in test [1] amounted to 9. The P53 in test [2] turned out to be 45.
Turning to “APTGGSATSMLYYDKGVVTYLRKHRGGVVK (Non-cyclic GFR-binding peptide) [SEQ ID NO: 127]”, the “pRB (%)” value in test [1] (setting [4]) stood at 16%. Besides, the “P53 (%)” value in test [2] (setting [4]) turned out to be 33%.
In the case of “TQVAARPVQTRKIDDMGVPTKKATVAAEDH (Non-cyclic GFR-binding peptide) [SEQ ID NO: 140]”, in test [1] (setting [4]), the “pRB (%)” value turned out to be 17%. In addition, in test [2] (setting [4]), the “P53 (%)” value was 35%.
For “VPTDDSATSTLYYDKGVVTYLRKHRDDEHS (Non-cyclic GFR-binding peptide) [SEQ ID NO: 137]”, the “pRB (%)” value in test [1] (setting [4]) was determined as 12%. The “P53 (%)” value in test [2] (setting [4]) is listed as 42%.
Consider “EPSSSRVRLEPLTTLYYGGGGGGGEQLSNVVEEHSKDKGVVTY (also: cyclic peptide, ring closure not given here) [SEQ ID NO: 38224]”, for which the “pRB (%)” value in test [1] (setting [3]) stood at 8%. In addition, the “P53 (%)” value in test [2] (setting [3]) is given as 46%.
“CKIPKASSVPTELEPLPIVYYVGRKPKVEQLSNMIVRS (Non-cyclic GFR-binding peptide) [SEQ ID NO: 174]” displayed a pRB in test [1] of 6. Also, the P53 in test [2] turned out to be 40.
As for “SRVLLRPVQMRKIDKGVVTYKKATVLLEEH (Non-cyclic GFR-binding peptide) [SEQ ID NO: 139]”, in test [1] (setting [4]), the “pRB (%)” value came to 18%. Moreover, the “P53 (%)” value in test [2] (setting [4]) was 49%.
Regarding “CAAAPASSSVPARLSPISILYIAAAYKQYEDM (Non-cyclic GFR-binding peptide) [SEQ ID NO: 185]”, the pRB in test [1] worked out at 8. Moreover, the P53 in test [2] is reported as 47.
Turning to “GTPGPRNVQCRPTQVQLSAISTLYLAAALKNYQTLE (Non-cyclic GFR-binding peptide) [SEQ ID NO: 173]”, the pRB in test [1] is given as 15. This sequence returned a P53 in test [2] of 37.
The corresponding values for “GTPGPAPTKLSAISMLYLDSSNNVILKKYR (Non-cyclic GFR-binding peptide) [SEQ ID NO: 166]” are 10 and 37.
The corresponding values for “CGIPEPSSVPEKMSSLSILFFDENKNVVLKVYPNM (Non-cyclic GFR-binding peptide) [SEQ ID NO: 179]” are 11 and 40.
Turning to “GTPGPPSSAPTQLSATSVLYYDDSSNVILRKHRMIVKS (Non-cyclic GFR-binding peptide) [SEQ ID NO: 164]”, the pRB in test [1] is listed as 10. The sequence further had a P53 in test [2] of 47.
In turn, “GTPGPKASSVPTELSPISTLYKDENEKVVLKYHYDM (Non-cyclic GFR-binding peptide) [SEQ ID NO: 168]” returned a pRB in test [1] of 13. The sequence also showed a P53 in test [2] of 51.
